This note sets out measurements from US5985893A, “Physically stable solid form of a fluoroquinolone” (Pharmacia & Upjohn Company, priority 1996, dated 1999).

≈ marks a conversion by molar mass, not a printed value. Where “and” joins values, the source holds several entries; their conditions need not be identical. Identical values can stand only once. Entries after “also recorded” stand apart in the source; their conditions may differ.

Holding throughout (type): physicochemical
Data set [1] can be described thus: Stability of the solid forms to phase transformation (overall finding). The conditions noted are these: variety of conditions.
The nature of data set [2]: Isothermal calorimetry (ITC) of Form I to Form III conversion. Conditions: after ITC at 40° C. The method, then: Isothermal calorimetry (ITC) experiments are conducted using a model 2277 microcalorimeter made by ThermoMetric (see Suurkuusk, J.:Wadso, I. Chem. Scr. (1982) Vol. 20 pp. 155-163). The Digitam® version 2.1 software from Thermometric is used to display the data and to integrate the total heat obtained from the samples. Heat flow is monitored as a function of time at 60° C. and at 40° C. Both glass and stainless steel ampules are used to hold the solid samples and the reference material (quartz sand). Samples are thermally equilibrated for a period ranging from 15 minutes (glass ampules) to 1 hour (stainless steel ampules) prior to recording thermal data. The weight of the samples ranged from about 75 to 300 mg. Samples in glass ampules are equilibrated via the isopiestic method at 53% or 75% RH in chambers containing saturated solutions of sodium chloride or calcium nitrate tetrahydrate. The ampules are capped immediately after removing the samples. Other samples are equilibrated using "microhygrostats" containing small quantities of saturated salt solutions which are sealed within the ampules. This arrangement provided for nearly constant relative humidity as the crystal conversion proceeded.
We therefore studied the transformation of samples after equilibration at […] and 75% RH. […] HPLC analysis of the reaction product confirmed that the 60° C. ITC profiles contained negligible contributions from chemical decomposition.
A detailed explanation of FIG. 9 follows. […] Trace (a) is recorded from a sample of Form I equilibrated to 75% relative humidity before sealing the sample container and exposing it to the 60° C. conditions in the calorimeter. Trace (b) is recorded for a sample of Form I at 60° C., but a 75% relative humidity "microhygrostat" is placed in the sample container just prior to recording the data. The conversion is delayed from that of trace (a) due to the fact that the water must be transported from the microhygrostat to the Form I crystals during the experiment. Trace (c) is recorded for a sample of Form I at 60° C., but the sample was equilibrated at 53% relative humidity prior to sealing the sample container.
This trace results from placing a 75% relative humidity microhygrostat into the sample container just prior to recording the data. The sample is held at 40° C. in the calorimeter; the heat flow results as the Form I material converts to Form III.

Data set [3] is described as follows: Enthalpies of solution (solution calorimetry). Conditions: Form III grown directly from solution. The method, then: The enthalpies of solution are determined in 50 mL of 0.1 M HCl at 25.0±0.05° C. Samples (0.10-0.11 g ) are weighed in 2 ml spherical, soft glass ampules and dried overnight in an evacuated desiccator over P2 O5. The ampules are removed, capped, weighed, and flame sealed. The enthalpies of solution are measured on a Tronac model 458 isoperibol solution calorimeter. The calorimetric accuracy of this instrument is within 1% based on calibration with tris(hydroxymethyl)-aminomethane (TRIS) in 0.1 N HCl.

The nature of data set [4]: Solubility of the quinolone, Forms I and III, in ethyl acetate. Conditions: 20° C, two values given. The method, then:
Bulk drug samples are prepared by dissolving the material in mobile phase at a final concentration of approximately 0.25 to 0.5 mg/ml. For solubility experiments, 100 mcl aliquots of ethyl acetate solutions are withdrawn and placed directly into HPLC autosampler vials. A gentle stream of nitrogen gas is used to evaporate the solvent in the sample vials. The solids are reconstituted with 0.5 ml of HPLC mobile phase prior to analysis.
Solubilities are measured in ethyl acetate. Five to ten milligrams of bulk drug are placed into an amber autoinjector vial, and 3.0 ml of ethyl acetate are added. The vials are capped and shaken for intervals up to 24 hours at room temperature using a Burrell model BB wrist-action shaker. Aliquots are withdrawn from the supernate after centrifugation. The final sample is taken from a quiescent solution which had not been shaken since the 24 hour timepoint.
The solubilities of Forms I and III were determined in ethyl acetate at room temperature; the solubility data for each form was gathered simultaneously, to assure that each form's solubility was measured under identical conditions. Ethyl acetate was employed as an aprotic solvent yielding fairly low equilibrium solubilities of the quinolone; ethyl acetate has been used to evaluate the difference in free energy of polymorphic forms of an antinociceptive drug, as described by K. Raghavan et al., J. Pharm. Biomed. Anal. Vol.12 (6), pp. 777-785 (1994). Under the assumption that the solubilities in TABLE S are consistent with the dilute solution limit, we can use the following expression to calculate the difference in Gibbs free energy between Form I and Form III: [formula] where "sx " is the solubility of Form x in a sufficiently dilute solution, R is the gas constant, and T is the absolute temperature. Using the data in Table 1, we find that the Gibbs free energy of Form III is lower than that of Form I by 7.7±0.2 kJ/mole.

Data set [5] in a line: DSC and thermomicroscopy of solid-state transformations. The protocol: A Nikon POH-2 polarized light compound microscope with 10× objective is employed to view specimens mounted dry between a glass microscope slide and a no. 11/2 Cover slip. The samples are heated from ambient through 250° C. in a Mettler FP-80 microfurnace controlled by a Mettler FP-8 microprocessor. The heating rates may vary from 5-20° C./minute. The hot-stage experiments may be videotaped (Sony T120-HG and PM VHS tape) with a Hitachi VK-C350 Color Video Camera and a Panasonic AG-6200 Video Cassette Recorder.
Differential scanning calorimetry (DSC) is used to monitor enthalpy changes as a function of temperature during a linear temperature increase. A DuPont 910 DSC interfaced to a TA Instruments TA2100 computer may be used. The scan rate is 5° C./minute, and the instrument is operated with a 50-80 cc/min dry nitrogen purge. Samples are encapsulated in hermetically sealed aluminum sample pans with a pressure rating of about 2 bar. In some experiments, the lids of the pans are perforated to permit the passage of moisture and other volatile components.
Because calorimetric samples are occasionally affected by residual moisture, samples are sometimes studied with different initial water activities. Samples are weighed into tared DSC pans, and the open pans are permitted to equilibrate for several days in chambers of constant relative humidity at 25±1° C. These chambers are prepared from saturated salt solutions at 53% RH and 75% RH. At the end of the equilibration period, the chambers are opened, and the lids are placed over the samples to prevent re-equilibration with the ambient atmosphere. The samples are removed from the chambers, and the pans are quickly crimped closed.
Detailed description of FIG. 8. […] The heating rate is 5° C./minute. (a.) The sample is encapsulated in a standard DSC pan. (b.) The sample is encapsulated in a hermetically sealed DSC pan. The profiles are offset along the ordinate axis for comparison.
Detailed description of FIG. 10. […] The heating rate was 5° C./minute. (a.) The sample was equilibrated at 53% RH and encapsulated in a standard DSC pan. (b.)The sample was equilibrated at 53% RH and encapsulated in a hermetically sealed DSC pan. (c.) The sample was equilibrated at 75% RH and encapsulated in a hermetically sealed DSC pan. The profiles were offset along the ordinate axis for comparison.

The nature of data set [6]: Dynamic moisture sorption gravimetry (controlled atmosphere microbalance, 25° C). The method, then:
Dynamic Moisture Sorption Gravimetry
Dynamic moisture uptake is studied on the controlled atmosphere microbalance system at 25° C. About ten mg of sample are equilibrated on the balance for about 2 hours at 2.5% RH. The relative humidity surrounding the sample is increased in increments of 3% RH up to about 92% RH, at which point the RH is decremented in 3% steps to a final RH of about 2.5%. At each relative humidity, the sample is allowed to equilibrate until the mass is stable within 0.0005 mg over a ten minute period. The dry mass is assumed to correspond to the mass of the sample after the initial equilibration period. A controlled atmosphere microbalance is a balance system described by Bergren, M.S. Int. J. Pharm. (1994) Vol. 103, pp. 103-114.
Detailed description of FIG. 2. […] The ordinate represents the mass change relative to the lowest mass measurement. The abscissa is relative humidity. The circles represent points recorded after sequential increases in the relative humidity and the squares were recorded after decreases in the relative humidity. The horizontal line in the middle of the plot corresponds to the water content of the hypothetical monohydrate of the quinolone.
Detailed description of FIG. 6. […] The ordinate represents the mass change relative to the lowest mass measurement. The abscissa is relative humidity. The circles represent points recorded after sequential increases in the relative humidity and the squares were recorded after decreases in the relative humidity. The horizontal line in the middle of the plot corresponds to the water content of the hypothetical monohydrate of the quinolone.

In the case of `CN[C@@H](C)[C@@H]1CCN(c2c(F)cc3c(=O)c(C(=O)O)cn(C4CC4)c3c2OC)C1` [Form MS, [S-(R*,S*)]-1-cyclopropyl-6-fluoro-1,4-dihydro-8-methoxy-7-[3-[1-(methylamino)ethyl]-1-pyrrolidinyl]-4-oxo-3-quinolinecarboxylic acid], the “Stability to transformation (in words)” value was “undergo phase transformations under a variety of conditions” in data set [1] and “desolvates to yield Form I under such mild conditions that solvent is not normally retained in the product crystals” in data set [1] (listed as methanolate).
Take `CN[C@@H](C)[C@@H]1CCN(c2c(F)cc3c(=O)c(C(=O)O)cn(C4CC4)c3c2OC)C1` [Form III, [S-(R*,S*)]-1-cyclopropyl-6-fluoro-1,4-dihydro-8-methoxy-7-[3-[1-(methylamino)ethyl]-1-pyrrolidinyl]-4-oxo-3-quinolinecarboxylic acid]: the “Moisture content of recovered Form III crystals” value in data set [2] came to 0.61%. The “Stability to transformation (in words)” value in data set [1] is listed as “stable to transformation”. Moreover, the “Enthalpy of Form III lower than Form I by” value in data set [3] is on record as “about 8.8 kJ/mole”. Also, the “Solubility, concentration” value in data set [4] (1 hour, 60 min) was 60 µg/mL and 90 µg/mL; in data set [4] (2 hours, 120 min), 110 µg/mL (≈ 273 µM); in data set [4] (4.5 hours, 270 min), 120 µg/mL (≈ 297 µM); in data set [4] (18 hours, 1080 min), 140 µg/mL (≈ 347 µM); in data set [4] (24 hours, 1440 min) it was 150 µg/mL (≈ 372 µM); in data set [4] (67.5 hours (not shaken after 24 hours), 4050 min), 140 µg/mL (≈ 347 µM). Moreover, in data set [5] (DSC), the Enthalpy of fusion entry is recorded as “approximately 150 J/g”. Further, in data set [6] (25° C, sorption/desorption), the “Moisture sorption behaviour (in words)” value was “sorbs less moisture than Form I at all relative humidities; also recorded: very little hysteresis between the sorption and desorption profiles, and the sample exhibited no evidence of recrystallization and/or hydrate Formation”. Further, the Moisture adsorbed entry in data set [6] (throughout the entire RH range) is “less than 0.5%”.
For the compound `CN[C@@H](C)[C@@H]1CCN(c2c(F)cc3c(=O)c(C(=O)O)cn(C4CC4)c3c2OC)C1` [Form II, [S-(R*,S*)]-1-cyclopropyl-6-fluoro-1,4-dihydro-8-methoxy-7-[3-[1-(methylamino)ethyl]-1-pyrrolidinyl]-4-oxo-3-quinolinecarboxylic acid], in data set [1], the “Stability to transformation (in words)” value was “undergo phase transformations under a variety of conditions”. In addition, the “Temperature of Form II to Form III transformation” value in data set [5] (melt/recrystallization) is 166-171 °C.
